# Patent publication US6211244A, “Calcium receptor-active compounds” (priority 1995, dated 2001)
# Counter-ions that a name gives are not always drawn. Like-named read-outs stand apart in the source and are kept apart here.
# Target: T1, human calcium receptor (Homo sapiens, UniProt P41180, R990G)
# T1 construct: expressed in transfected cells; host or cells: HEK 293
# T1 sequence (P41180 20-1078 R990G): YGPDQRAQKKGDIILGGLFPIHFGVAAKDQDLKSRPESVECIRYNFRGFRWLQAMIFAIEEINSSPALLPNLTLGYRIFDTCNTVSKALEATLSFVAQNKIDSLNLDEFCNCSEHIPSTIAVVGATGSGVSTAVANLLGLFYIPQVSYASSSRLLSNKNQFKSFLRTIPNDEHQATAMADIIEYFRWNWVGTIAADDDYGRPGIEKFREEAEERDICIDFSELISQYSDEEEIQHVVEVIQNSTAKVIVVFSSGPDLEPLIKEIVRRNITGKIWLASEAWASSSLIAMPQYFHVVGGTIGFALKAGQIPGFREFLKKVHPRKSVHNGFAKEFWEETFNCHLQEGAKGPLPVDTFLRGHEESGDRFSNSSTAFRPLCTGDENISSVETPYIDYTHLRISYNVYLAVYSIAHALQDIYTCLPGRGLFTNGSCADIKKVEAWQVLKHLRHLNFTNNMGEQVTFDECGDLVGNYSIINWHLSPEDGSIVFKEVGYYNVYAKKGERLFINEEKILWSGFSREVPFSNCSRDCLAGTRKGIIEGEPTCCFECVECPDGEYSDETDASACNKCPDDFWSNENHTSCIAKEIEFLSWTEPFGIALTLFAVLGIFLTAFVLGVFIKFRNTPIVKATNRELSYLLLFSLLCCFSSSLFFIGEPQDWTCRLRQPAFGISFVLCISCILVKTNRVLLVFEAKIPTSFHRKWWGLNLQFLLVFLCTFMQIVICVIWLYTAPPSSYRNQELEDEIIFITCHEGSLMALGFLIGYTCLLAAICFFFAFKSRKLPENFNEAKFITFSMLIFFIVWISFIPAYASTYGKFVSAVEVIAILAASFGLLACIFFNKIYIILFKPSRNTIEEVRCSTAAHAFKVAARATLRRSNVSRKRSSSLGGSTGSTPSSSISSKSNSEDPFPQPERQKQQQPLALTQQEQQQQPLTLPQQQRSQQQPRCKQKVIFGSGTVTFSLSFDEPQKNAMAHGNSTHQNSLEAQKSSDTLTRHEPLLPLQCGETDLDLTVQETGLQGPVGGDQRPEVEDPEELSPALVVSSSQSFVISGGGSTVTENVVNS
# Test: increases in [Ca^2+ ]i in HEK-293 cells expressing the human calcium receptor (fura-2 loaded HEK 293/pHuPCaR4.0 cells), % activity
# Assay type: cell-based
smiles,measurement,setting,value
COc1cccc(C(C)NCCCc2cc(OC)c(OC)c(OC)c2)c1 (stereo not drawn) [Compound 8S],% activity,33 ng/mL,42%
same,% activity,330 ng/mL,73%
COc1cccc(C(C)NCC=Cc2ccccc2OC)c1 (stereo not drawn) [Compound 8T],% activity,33 ng/mL,55%
same,% activity,330 ng/mL,85%
"COc1cccc([C@@H](C)NCCCc2ccccc2OC)c1 [Compound 8U, N-3-(2-methoxyphenyl)-1-propyl-(R)-3-methoxy-α-methylbenzylamine hydrochloride]",% activity,33 ng/mL,82%
same,% activity,330 ng/mL,129%
same,% activity,3300 ng/mL,123%
COc1cccc([C@@H](C)NCCCc2ccc(C)cc2)c1 [Compound 8X],% activity,33 ng/mL,40%
same,% activity,330 ng/mL,75%
CC(N[C@H](C)c1cccc2ccccc12)c1ccc2ccccc2c1 (stereo partly drawn) [Compound 8Z],% activity,33 ng/mL,97%
same,% activity,330 ng/mL,101%
"C[C@@H](N[C@H](C)c1cccc2ccccc12)c1ccc2ccccc2c1.Cl [Compound 9R, (R)-N-(1-(2-naphthyl)ethyl)-(R)-1-(1-naphthyl)ethylamine hydrochloride]",% activity,33 ng/mL,101%
same,% activity,330 ng/mL,108%
CC(NCc1ccc(-c2ccccc2)cc1)c1cccc2ccccc12 (stereo not drawn) [Compound 10N],% activity,33 ng/mL,77%
same,% activity,330 ng/mL,97%
same,% activity,3300 ng/mL,106%
COc1cccc(C(C)NCc2ccc3ccccc3c2)c1 (stereo not drawn) [Compound 10P],% activity,33 ng/mL,74%
same,% activity,330 ng/mL,102%
CC(NC(C)c1cccc2ccccc12)c1ccc2c(c1)-c1ccccc1-2 (stereo not drawn) [Compound 10Q],% activity,33 ng/mL,84%
same,% activity,330 ng/mL,100%
same,% activity,3300 ng/mL,103%
CC(NC(C)c1cccc2ccccc12)c1ccc2c(c1)-c1ccccc1-2 (stereo not drawn) [Compound 10R],% activity,33 ng/mL,42%
same,% activity,330 ng/mL,82%
CC(NC1CC1c1ccccc1)c1cccc2ccccc12 (stereo not drawn) [Compound 10V],% activity,33 ng/mL,62%
same,% activity,330 ng/mL,99%
C=CCOc1cccc([C@@H](C)NCc2ccc3ccccc3c2)c1 [Compound 10Z],% activity,33 ng/mL,51%
same,% activity,330 ng/mL,96%
CCOC(=O)COc1cccc([C@@H](C)NCc2ccc3ccccc3c2)c1 [Compound 11D],% activity,33 ng/mL,50%
same,% activity,330 ng/mL,96%
COc1cccc([C@@H](C)NCc2cccc(OCc3ccccc3)c2)c1 [Compound 11W],% activity,33 ng/mL,44%
same,% activity,330 ng/mL,81%
"CC(C)c1ccc(CN[C@H](C)c2cccc3ccccc23)cc1.Cl [Compound 11X, N-(4-Isopropylbenzyl)-(R)-1-(1-naphthyl)ethylamine hydrochloride]",% activity,33 ng/mL,76%
same,% activity,330 ng/mL,100%
COc1cccc([C@@H](C)NCc2ccc(C(C)C)cc2)c1 [Compound 11Y],% activity,33 ng/mL,61%
same,% activity,330 ng/mL,103%
"COc1cccc([C@@H](C)NCC=Cc2ccc(C)cc2)c1 [Compound 12B, (R)-N-[3-(4-methylphenyl)prop-2-enyl]-1-(3-methoxyphenyl)ethylamine]",% activity,33 ng/mL,56%
same,% activity,330 ng/mL,110%
same,% activity,3300 ng/mL,130%
"COc1cccc([C@@H](C)NCC=Cc2ccccc2C)c1 [Compound 12C, (R)-N-[3-(2-methylphenyl)prop-2-enyl]-1-(3-methoxyphenyl)ethylamine]",% activity,33 ng/mL,98%
same,% activity,330 ng/mL,125%
same,% activity,3300 ng/mL,134%
"COc1cccc([C@@H](C)NCC=Cc2c(C)cc(C)cc2C)c1 [Compound 12D, (R)-N-[3-(2,4,6-trimethylphenyl)prop-2-enyl]-1-(3-methoxyphenyl)ethylamine]",% activity,33 ng/mL,52%
same,% activity,330 ng/mL,109%
same,% activity,3300 ng/mL,128%
"COc1cccc([C@@H](C)NCC=Cc2ccc(C(C)C)cc2)c1 [Compound 12E, (R)-N-[3-(4-isopropylphenyl)prop-2-enyl]-1-(3-methoxyphenyl)ethylamine]",% activity,33 ng/mL,73%
same,% activity,330 ng/mL,121%
same,% activity,3300 ng/mL,117%
"COc1cccc([C@@H](C)NCC=Cc2ccc(C)cc2C)c1 [Compound 12F, (R)-N-[3-(2,4-dimethylphenyl)prop-2-enyl]-1-(3-methoxyphenyl)ethylamine]",% activity,33 ng/mL,101%
same,% activity,330 ng/mL,110%
same,% activity,3300 ng/mL,118%
"COc1cccc([C@@H](C)NCC=Cc2cccc(C)c2)c1 [Compound 12G, (R)-N-[3-(3-methylphenyl)prop-2-enyl]-1-(3-methoxyphenyl)ethylamine]",% activity,33 ng/mL,81%
same,% activity,330 ng/mL,139%
same,% activity,3300 ng/mL,139%
COc1cccc([C@@H](C)NCc2cccc(Oc3ccccc3)c2)c1 [Compound 12H],% activity,33 ng/mL,94%
same,% activity,330 ng/mL,115%
same,% activity,3300 ng/mL,114%
C[C@@H](NCc1ccc(OCc2ccccc2)cc1)c1cccc2ccccc12 [Compound 12I],% activity,33 ng/mL,93%
same,% activity,330 ng/mL,111%
same,% activity,3300 ng/mL,115%
CC(NCc1cccc(OCc2ccccc2)c1)c1cccc2ccccc12 (stereo not drawn) [Compound 12J],% activity,33 ng/mL,113%
same,% activity,330 ng/mL,130%
same,% activity,3300 ng/mL,131%
C[C@@H](NCc1ccccc1)c1cccc2ccccc12 [Compound 12L],% activity,,45
same,% activity,330 ng/mL,88%
COc1cccc(C(C)NCc2ccc(C=Cc3ccccc3)cc2)c1 (stereo not drawn) [Compound 12M],% activity,33 ng/mL,56%
same,% activity,330 ng/mL,86%
same,% activity,3300 ng/mL,98%
C[C@@H](NCc1ccc(C(C)(C)c2ccccc2)cc1)c1cccc2ccccc12 [Compound 12N],% activity,33 ng/mL,102%
same,% activity,330 ng/mL,106%
same,% activity,3300 ng/mL,115%
COc1cccc([C@@H](C)NCc2ccc(C(C)(C)c3ccccc3)cc2)c1 [Compound 12O],% activity,33 ng/mL,94%
same,% activity,330 ng/mL,117%
same,% activity,3300 ng/mL,110%
COc1cccc([C@@H](C)NCCCc2ccc(C(C)C)cc2)c1 [Compound 12Y],% activity,33 ng/mL,46%
same,% activity,330 ng/mL,80%
CC(NC(C)c1ccc(C(C)(C)C)cc1)c1ccccc1 (stereo not drawn) [Compound 13E],% activity,33 ng/mL,40%
same,% activity,330 ng/mL,94%
same,% activity,3300 ng/mL,123%
CC(N[C@H](C)c1ccc2ccccc2c1)c1ccc(C(C)(C)C)cc1 (stereo partly drawn) [Compound 13F],% activity,33 ng/mL,85%
same,% activity,330 ng/mL,122%
same,% activity,3300 ng/mL,125%
C[C@@H](NCc1cccc(Cl)c1)c1cccc2ccccc12 [Compound 13M],% activity,33 ng/mL,66%
same,% activity,330 ng/mL,92%
CCc1ccc(CN[C@H](C)c2cccc3ccccc23)cc1 [Compound 13N],% activity,33 ng/mL,88%
same,% activity,330 ng/mL,114%
C[C@@H](NCc1ccc(Cl)cc1)c1cccc2ccccc12 [Compound 13O],% activity,33 ng/mL,94%
same,% activity,330 ng/mL,115%
Cc1ccc(CN[C@H](C)c2cccc3ccccc23)cc1 [Compound 13P],% activity,33 ng/mL,83%
same,% activity,330 ng/mL,110%
C[C@@H](NCc1ccc(Cl)c(Cl)c1)c1cccc2ccccc12 [Compound 13R],% activity,33 ng/mL,98%
same,% activity,330 ng/mL,132%
C[C@@H](NCc1ccc(F)cc1)c1cccc2ccccc12 [Compound 13T],% activity,33 ng/mL,53%
same,% activity,330 ng/mL,90%
COc1ccc(CN[C@H](C)c2cccc3ccccc23)cc1 [Compound 13U],% activity,33 ng/mL,79%
same,% activity,330 ng/mL,108%
C[C@@H](NCc1ccc(N(C)C)cc1)c1cccc2ccccc12 [Compound 13V],% activity,33 ng/mL,79%
same,% activity,330 ng/mL,110%
C[C@@H](NCc1ccc([N+](=O)[O-])cc1)c1cccc2ccccc12 [Compound 13W],% activity,33 ng/mL,71%
same,% activity,330 ng/mL,109%
